Assay results: ChEMBL document CHEMBL4346705, “(±)-trans-Dihydronarciclasine and (±)-trans-dihydrolycoricidine analogues modified in their ring A: Evaluation of their anticancer activity and a SAR study” (2019)

Experiments:
Assay type in all cases: functional
HT-29 = assay: Cytotoxicity against human HT-29 cells assessed as growth inhibition after 48 hrs by sulforhodamine B assay; details: HT-29, 48 h
MCF7 = assay: Cytotoxicity against human MCF7 cells assessed as growth inhibition after 48 hrs by sulforhodamine B assay; details: MCF7, 48 h
SK-MEL-28 = assay: Cytotoxicity against human SK-MEL-28 cells assessed as growth inhibition after 48 hrs by sulforhodamine B assay; details: SK-MEL-28, 48 h
IGROV-1 = assay: Cytotoxicity against human IGROV1 cells assessed as growth inhibition after 48 hrs by sulforhodamine B assay; details: IGROV-1, 48 h
MOLT-4 = assay: Cytotoxicity against human MOLT4 cells assessed as growth inhibition after 48 hrs by sulforhodamine B assay; details: MOLT-4, 48 h
A498 = assay: Cytotoxicity against human A498 cells assessed as growth inhibition after 48 hrs by sulforhodamine B assay; details: A498, 48 h
NCI-H322M = assay: Cytotoxicity against human NCI-H322M cells assessed as growth inhibition after 48 hrs by sulforhodamine B assay
OVCAR-3 = assay: Cytotoxicity against human OVCAR3 cells assessed as growth inhibition after 48 hrs by sulforhodamine B assay; details: OVCAR-3, 48 h
U-251 = assay: Cytotoxicity against human U251 cells assessed as growth inhibition after 48 hrs by sulforhodamine B assay; details: U-251, 48 h
HCC 2998 = assay: Cytotoxicity against human HCC2998 cells assessed as growth inhibition after 48 hrs by sulforhodamine B assay; details: HCC 2998, 48 h
HOP-92 = assay: Cytotoxicity against human HOP92 cells assessed as growth inhibition after 48 hrs by sulforhodamine B assay; details: HOP-92, 48 h
Malme-3M = assay: Cytotoxicity against human MALME-3M cells assessed as growth inhibition after 48 hrs by sulforhodamine B assay
SF-295 = assay: Cytotoxicity against human SF295 cells assessed as growth inhibition after 48 hrs by sulforhodamine B assay; details: SF-295, 48 h
EKVX = assay: Cytotoxicity against human EKVX cells assessed as growth inhibition after 48 hrs by sulforhodamine B assay
CCRF-CEM = assay: Cytotoxicity against human CCRF-CEM cells assessed as growth inhibition after 48 hrs by sulforhodamine B assay
SF-268 = assay: Cytotoxicity against human SF268 cells assessed as growth inhibition after 48 hrs by sulforhodamine B assay; details: SF-268, 48 h
RPMI-8226 = assay: Cytotoxicity against human RPMI8226 cells assessed as growth inhibition after 48 hrs by sulforhodamine B assay; details: RPMI-8226, 48 h
OVCAR-5 = assay: Cytotoxicity against human OVCAR5 cells assessed as growth inhibition after 48 hrs by sulforhodamine B assay; details: OVCAR-5, 48 h
A549 = assay: Cytotoxicity against human A549 cells assessed as growth inhibition after 48 hrs by sulforhodamine B assay; details: A549, 48 h
NCI/ADR-RES = assay: Cytotoxicity against human NCI-ADR-RES cells assessed as growth inhibition after 48 hrs by sulforhodamine B assay
Hs-578T = assay: Cytotoxicity against human Hs 578T cells assessed as growth inhibition after 48 hrs by sulforhodamine B assay
KM12 = assay: Cytotoxicity against human KM12 cells assessed as growth inhibition after 48 hrs by sulforhodamine B assay; details: KM12, 48 h
NCI-H226 = assay: Cytotoxicity against human NCI-H226 cells assessed as growth inhibition after 48 hrs by sulforhodamine B assay; details: NCI-H226, 48 h
ACHN = assay: Cytotoxicity against human ACHN cells assessed as growth inhibition after 48 hrs by sulforhodamine B assay
HL-60(TB) = assay: Cytotoxicity against human HL-60(TB) cells assessed as growth inhibition after 48 hrs by sulforhodamine B assay; details: HL-60, 48 h
K562 = assay: Cytotoxicity against human K562 cells assessed as growth inhibition after 48 hrs by sulforhodamine B assay; details: K562, 48 h
HOP-62 = assay: Cytotoxicity against human HOP62 cells assessed as growth inhibition after 48 hrs by sulforhodamine B assay; details: HOP-62, 48 h
HCT-116 = assay: Cytotoxicity against human HCT116 cells assessed as growth inhibition after 48 hrs by sulforhodamine B assay; details: HCT-116, 48 h
PC-3 = assay: Cytotoxicity against human PC3 cells assessed as growth inhibition after 48 hrs by sulforhodamine B assay; details: PC-3, 48 h
SN12C = assay: Cytotoxicity against human SN12C cells assessed as growth inhibition after 48 hrs by sulforhodamine B assay
SK-MEL-2 = assay: Cytotoxicity against human SK-MEL-2 cells assessed as growth inhibition after 48 hrs by sulforhodamine B assay; details: SK-MEL-2, 48 h
BT-549 = assay: Cytotoxicity against human BT549 cells assessed as growth inhibition after 48 hrs by sulforhodamine B assay; details: BT-549, 48 h
HCT-15 = assay: Cytotoxicity against human HCT15 cells assessed as growth inhibition after 48 hrs by sulforhodamine B assay; details: HCT-15, 48 h
[1] = read-out: LC50 (the source's name)

O=C1NC2C(CC(O)C(O)C2O)c2cc3c(c(O)c21)OCO3 (racemic)
GI50 (HT-29): 89.6 nM | TGI (HT-29): 1000 nM | GI50 (MCF7): 36.3 nM | TGI (MCF7): 1230 nM | GI50 (SK-MEL-28): 62.9 nM | TGI (SK-MEL-28): 480 nM | GI50 (IGROV-1): 163 nM | TGI (IGROV-1): 1110 nM | GI50 (MOLT-4): 63.6 nM | CC50 (MOLT-4; [1]): > 100000 nM | GI50 (A498): 200 nM | TGI (A498): 540 nM | GI50 (NCI-H322M): 49.6 nM | TGI (NCI-H322M): 480 nM | CC50 (NCI-H322M; [1]): > 100000 nM | GI50 (OVCAR-3): 93.3 nM | TGI (OVCAR-3): 480 nM | GI50 (U-251): 45.2 nM | TGI (U-251): 1010 nM | GI50 (HCC 2998): 57.2 nM | TGI (HCC 2998): 330 nM | GI50 (HOP-92): 49 nM | TGI (HOP-92): 570 nM | GI50 (Malme-3M): 85.9 nM | TGI (Malme-3M): 390 nM | GI50 (SF-295): 115 nM | TGI (SF-295): 770 nM | CC50 (SF-295; [1]): > 100000 nM | GI50 (EKVX): 145 nM | TGI (EKVX): 1060 nM | CC50 (EKVX; [1]): > 100000 nM | GI50 (CCRF-CEM): 52.9 nM | TGI (CCRF-CEM): 2150 nM | GI50 (SF-268): 127 nM | TGI (SF-268): 800 nM | GI50 (RPMI-8226): 229 nM | TGI (RPMI-8226): 630 nM | GI50 (OVCAR-5): 170 nM | TGI (OVCAR-5): 1050 nM | GI50 (A549): 139 nM | TGI (A549): 1160 nM | CC50 (A549; [1]): > 100000 nM | GI50 (NCI/ADR-RES): 178 nM | TGI (NCI/ADR-RES): 1560 nM | CC50 (NCI/ADR-RES; [1]): > 100000 nM | GI50 (Hs-578T): 76.1 nM | TGI (Hs-578T): 510 nM | GI50 (KM12): 44.5 nM | TGI (KM12): 320 nM | GI50 (NCI-H226): 61.7 nM | TGI (NCI-H226): 590 nM | GI50 (ACHN): 97.9 nM | TGI (ACHN): 750 nM | GI50 (HL-60(TB)): 60.1 nM | TGI (HL-60(TB)): 260 nM | GI50 (K562): 52.9 nM | TGI (K562): > 100000 nM | CC50 (K562; [1]): > 100000 nM | GI50 (HOP-62): 56.8 nM | TGI (HOP-62): 420 nM | CC50 (HOP-62; [1]): > 100000 nM | GI50 (HCT-116): 40.4 nM | TGI (HCT-116): 1130 nM | GI50 (PC-3): 164 nM | TGI (PC-3): 850 nM | GI50 (SN12C): 69.3 nM | TGI (SN12C): 800 nM | CC50 (SN12C; [1]): > 100000 nM | GI50 (SK-MEL-2): 56.1 nM | TGI (SK-MEL-2): 250 nM | GI50 (BT-549): 178 nM | TGI (BT-549): 820 nM | GI50 (HCT-15): 85.7 nM | TGI (HCT-15): 1110 nM
